ChEMBL document CHEMBL1208724, “A new group of oxime carbamates as reversible inhibitors of fatty acid amide hydrolase” (Bioorg Med Chem Lett, 2010)

Target: T1, Fatty-acid amide hydrolase 1 (Mus musculus, UniProt O08914)
T1 sequence (O08914 whole entry): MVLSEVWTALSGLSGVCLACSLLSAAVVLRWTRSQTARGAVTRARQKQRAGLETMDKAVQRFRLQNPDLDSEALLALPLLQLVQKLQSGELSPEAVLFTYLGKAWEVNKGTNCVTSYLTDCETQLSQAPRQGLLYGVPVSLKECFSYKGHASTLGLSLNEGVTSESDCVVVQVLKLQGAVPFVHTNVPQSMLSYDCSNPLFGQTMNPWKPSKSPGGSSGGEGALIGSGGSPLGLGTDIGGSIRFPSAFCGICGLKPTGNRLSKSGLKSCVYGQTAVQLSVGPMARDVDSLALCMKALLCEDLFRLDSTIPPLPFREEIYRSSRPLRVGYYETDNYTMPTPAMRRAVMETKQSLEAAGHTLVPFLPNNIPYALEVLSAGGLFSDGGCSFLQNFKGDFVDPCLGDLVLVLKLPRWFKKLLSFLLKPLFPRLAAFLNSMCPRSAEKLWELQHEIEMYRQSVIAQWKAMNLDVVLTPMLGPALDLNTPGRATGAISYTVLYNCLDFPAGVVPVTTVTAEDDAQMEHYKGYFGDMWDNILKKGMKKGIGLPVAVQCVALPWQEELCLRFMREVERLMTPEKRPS
Test: Inhibition of mouse brain FAAH assessed as conversion of [3H-ethanolamine]AEA to [3H]ethanolamine by scintillation counting

Row | IC50 [nM] | SMILES
1 | 28 | COc1ccc(NC(=O)O/N=C(\C)c2cccc(-c3ccccc3)c2)cc1
2 | > 1000 | C/C(=N\OC(=O)Nc1cccc2ccccc12)c1ccc(C2CCCCC2)cc1
